The assay concerns the target T1, human MK2 (Homo sapiens, UniProt P49137).
T1 construct: made in house
Put plainly: MAPKAPK2 (or MK2) Kinase Assay. It counts as biochemical. The settings on record: activated MAPKAPK2, Hsp27 peptide substrate, 5 μM ATP, TR-FRET. As for the experimental part:
MAPKAPK2 (or MK2) Kinase Assay
MAPAPK2 is pre-activated in kinase buffer (25 mM TRIS-HCL, pH 7.5, 25 mM beta-glycerophosphate, 0.1 mM sodium orthovanadate, 25 mM MgCl2, 20 μM DTT) containing 5 μM ATP, 150 μg/ml human MK2 (HPLC purified in house), 30 μg/ml active human p38α (HPLC purified in house) for 30 min at 22° C. For the measurement of compound inhibition on activated MAPAPK2, each reaction contained test compound (10 μl; 0.5% DMSO final) or vehicle control, 250 nM Hsp27 peptide biotinyl-AYSRALSRQLSSGVSEIR—COOH as substrate (10 μl) and pre-activated MAPKAP2 kinase mix (10 μl) containing ATP (5 μM final). To define non-specific, reactions are performed in the absence of substrate. Following incubation at 22° C. for 45 min, kinase reactions are terminated with 125 μM EDTA (10 μl). Samples (10 μl) are transferred to black low volume 384-well plates (Greiner) prior to the detection of phosphorylated substrate by time-resolved fluorescence resonance energy transfer (TR-FRET). Phosphorylated Hsp27 is measured using an antibody mix (10 μl) containing a rabbit anti-phospho-Hsp27 (Ser^82) antibody (2.5 nM, Upstate) in conjunction with an anti-rabbit europium-labeled secondary antibody LANCE Eu-W1024 (2.5 nM; Perkin Elmer) as fluorescence donor along with streptavidin SureLight-APC (6.25 nM; Perkin Elmer) as a fluorescence acceptor. Following incubation at 22° C. for 90 min, plates are measured at 615 and 665 nm using a PHERAstar (BMG Labtech). The 615/665 nm ratio is determined following subtraction of background. Values are expressed as % inhibition using control values. Individual IC50 values of compounds are determined by nonlinear regression after fitting of curves to the experimental data using Excel XL fit 4.0 (Microsoft).
For a number of compounds being identified by their example No. the efficacy is disclosed as being assessable by the above described MK2 kinase assay: […]
For orientation: Time-resolved FRET reads energy transfer from a long-lived donor to a nearby acceptor.

pIC50: −log10 of the molar value. Structures can show the parent of a compound that is named as a salt.

T1 sequence (P49137 whole entry): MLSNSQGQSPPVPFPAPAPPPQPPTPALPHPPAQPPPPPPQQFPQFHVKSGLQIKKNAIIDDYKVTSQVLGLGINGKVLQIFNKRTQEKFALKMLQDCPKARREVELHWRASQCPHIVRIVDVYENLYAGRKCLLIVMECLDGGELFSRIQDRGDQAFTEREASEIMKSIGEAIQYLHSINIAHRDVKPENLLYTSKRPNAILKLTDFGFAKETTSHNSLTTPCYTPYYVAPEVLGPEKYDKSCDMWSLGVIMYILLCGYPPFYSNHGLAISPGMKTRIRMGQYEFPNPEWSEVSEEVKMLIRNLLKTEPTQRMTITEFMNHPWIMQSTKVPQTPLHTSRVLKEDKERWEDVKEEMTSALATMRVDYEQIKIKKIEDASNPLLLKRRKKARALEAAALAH

Usually pIC50 stands for the IC50 on a negative log10 scale, so that one unit is a factor of ten. Regarding `NC(=O)c1cc(-c2ccnc(/C=C/c3ccc(F)cc3)c2)[nH]c1N1CCNCC1` [Example 9, 5-{2-[(E)-2-(4-Fluoro-phenyl)-vinyl]-pyridin-4-yl}-2-piperazin-1-yl-1H-pyrrole-3-carboxylic acid amide], the pIC50 was 6.89. Take `NC(=O)c1cc(-c2ccnc(/C=C/c3ccccc3)c2)[nH]c1N1CCNCC1` [Example 14, 2-Piperazin-1-yl-5-[2-((E)-styryl)-pyridin-4-yl]-1H-pyrrole-3-carboxylic acid amide]: the pIC50 is 6.92. Then `NC(=O)c1cc(-c2ccnc(-c3ccc(S(=O)(=O)N4CCOCC4)cc3)c2)[nH]c1N1CCNCC1` [Example 51, 5-{2-[4-(Morpholine-4-sulfonyl)-phenyl]-pyridin-4-yl}-2-piperazin-1-yl-1H-pyrrole-3-carboxylic acid amide], with 7.30. The same measure for `NC(=O)c1cc(-c2ccnc(-c3ccc(C(=O)NC4CCCC4)cc3)c2)[nH]c1N1CCNCC1` [Example 55, 5-[2-(4-Cyclopentylcarbamoyl-phenyl)-pyridin-4-yl]-2-piperazin-1-yl-1H-pyrrole-3-carboxylic acid amide]: 6.59; for `NC(=O)c1cc(-c2ccnc(/C=C/c3ccc(CN4CCOCC4)cc3)c2)[nH]c1N1CCNCC1` [Example 72, 5-{2-[(E)-2-(4-Morpholin-4-ylmethyl-phenyl)-vinyl]-pyridin-4-yl}-2-piperazin-1-yl-1H-pyrrole-3-carboxylic acid amide hydrobromide]: 7.00. Then `N#Cc1cc(-c2ccnc(/C=C/c3ccc(C(=O)N4CCOCC4)cc3)c2)[nH]c1N1CCNCC1` [Example 75, 5-(2-{(E)-2-[4-(Morpholine-4-carbonyl)-phenyl]-vinyl}-pyridin-4-yl)-2-piperazin-1-yl-1H-pyrrole-3-carbonitrile], with 6.82; and `NC(=O)c1cc(-c2ccnc(/C=C/c3cccnc3)c2)[nH]c1N1CCNCC1` [Example 81, 2-Piperazin-1-yl-5-[2-((E)-2-pyridin-3-yl-vinyl)-pyridin-4-yl]-1H-pyrrole-3-carboxylic acid amide], with 6.85. Compound `NC(=O)c1cc(-c2ccnc(Nc3cccc(S(=O)(=O)N4CCOCC4)c3)c2)[nH]c1N1CCNCC1` [Example 93, 5-{2-[3-(Morpholine-4-sulfonyl)-phenylamino]-pyridin-4-yl}-2-piperazin-1-yl-1H-pyrrole-3-carboxylic acid amide] gave a negative-log IC50 (pIC50) of 7.05.

Consider `CN1CCC(Oc2ccc(-c3cc(-c4cc(C#N)c(N5CCNCC5)[nH]4)ccn3)cn2)CC1` [Example 105, 5-[6′-(1-Methyl-piperidin-4-yloxy)-[2,3′]bipyridinyl-4-yl]-2-piperazin-1-yl-1H-pyrrole-3-carbonitrile trifluoroacetate], for which the negative logarithm of the IC50 (pIC50) is 7.15. Compound `NC(=O)c1cc(-c2ccnc(-c3ccc(N4CCCCC4)nc3)c2)[nH]c1N1CCNCC1` [Example 109, 2-Piperazin-1-yl-5-(3,4,5,6-tetrahydro-2H-[1,2′;5′,2″]terpyridin-4″-yl)-1H-pyrrole-3-carboxylic acid amide] showed a negative-log IC50 (pIC50) of 6.80.

As for `CN1CCN(c2ccc(-c3cc(-c4cc(C(N)=O)c(N5CCNCC5)[nH]4)ccn3)cn2)CC1` [Example 110, 5-[6′-(4-Methyl-piperazin-1-yl)-[2,3′]bipyridinyl-4-yl]-2-piperazin-1-yl-1H-pyrrole-3-carboxylic acid amide], the negative logarithm of the IC50 (pIC50) is 6.82. Then `NC(=O)c1cc(-c2ccnc(-c3ccc(N4CCN(Cc5ccccc5)CC4)nc3)c2)[nH]c1N1CCNCC1` [Example 116, 5-[6′-(4-Benzyl-piperazin-1-yl)-[2,3′]bipyridinyl-4-yl]-2-piperazin-1-yl-1H-pyrrole-3-carboxylic acid amide], with 6.70. The compound `N#Cc1cc(-c2ccnc(-c3cnc(N4CCCOCC4)nc3)c2)[nH]c1N1CCNCC1` [Example 118, 5-[2-(2-[1,4]Oxazepan-4-yl-pyrimidin-5-yl)-pyridin-4-yl]-2-piperazin-1-yl-1H-pyrrole-3-carbonitrile trifluoroacetate] had a negative-log IC50 (pIC50) of 7.15. This pIC50 lies 0.45 log units higher than the previous one. Then `Cc1[nH]c(-c2ccnc(/C=C/c3ccc(CN4CCOCC4)cc3)c2)cc1C#N` [Example 131, 2-Methyl-5-{2-[(E)-2-(4-morpholin-4-ylmethyl-phenyl)-vinyl]-pyridin-4-yl}-1H-pyrrole-3-carbonitrile], with 6.54; and `N#Cc1cc(-c2ccnc(/C=C/c3ccccc3)c2)[nH]c1C1CCNCC1` [Example 144, 2-Piperidin-4-yl-5-[2-((E)-styryl)-pyridin-4-yl]-1H-pyrrole-3-carbonitrile], with 6.68; and `N#Cc1cc(-c2ccnc(/C=C/c3ccccc3)c2)[nH]c1CCN` [Example 148, 2-(2-Amino-ethyl)-5-[2-((E)-styryl)-pyridin-4-yl]-1H-pyrrole-3-carbonitrile], with 6.82. The same measure for `NCCc1[nH]c(-c2ccnc(/C=C/c3ccccc3)c2)cc1C(=O)O` [Example 155, 2-(2-Amino-ethyl)-5-[2-((E)-styryl)-pyridin-4-yl]-1H-pyrrole-3-carboxylic acid]: 7.10; for `NC(=O)c1cc(-c2ccnc(/C=C/c3ccccc3)c2)[nH]c1C1=CCNCC1` [Example 170, 5-[2-((E)-Styryl)-pyridin-4-yl]-2-(1,2,3,6-tetrahydro-pyridin-4-yl)-1H-pyrrole-3-carboxylic acid amide]: 6.57.

(Values after US20100105664A1, “ORGANIC COMPOUNDS” (priority 2006, published 2010).)
